From patent publication US20070259945A1, “METHOD FOR TREATING PAIN” (ALLERGAN, INC., priority 2005, published 2007)

Key:
[1] = tested on: nocifensive response to formalin; test: Formalin test, injection into the paw; format: in vivo; conditions: injected into the paw; counteracted by AM251 and occluded by capsazepine
Description: (§1) The compounds of formula I are novel agents against […], acting by enhancing endocannabinoid levels (via FAAH inhibition) and at the same time by antagonizing TRPV1.

anandamide levels = test: Anandamide levels in the PAG after intra-PAG injection; format: in vivo; conditions: rat, 4 μg/rat intra-PAG, measured 20 min following injection
Description: as §1

[2] = biological target: fatty acid amide hydrolase (FAAH) (Rattus norvegicus, UniProt P97612)
TRPV1 channels = TRPV1 channels (Homo sapiens, UniProt Q8NER1); test: Blocking of TRPV1 channel activation by capsaicin; format: cell-based; conditions: capsaicin 100 nM; FIG. 1A; read-out: IC50 against capsaicin
[3] = tested on: nociceptive response to formalin injected into the rat paw; test: Formalin test, injection into the periaqueductal grey (PAG); format: in vivo
Description: as §1

Chain of TRPV1 channels (Q8NER1 whole entry): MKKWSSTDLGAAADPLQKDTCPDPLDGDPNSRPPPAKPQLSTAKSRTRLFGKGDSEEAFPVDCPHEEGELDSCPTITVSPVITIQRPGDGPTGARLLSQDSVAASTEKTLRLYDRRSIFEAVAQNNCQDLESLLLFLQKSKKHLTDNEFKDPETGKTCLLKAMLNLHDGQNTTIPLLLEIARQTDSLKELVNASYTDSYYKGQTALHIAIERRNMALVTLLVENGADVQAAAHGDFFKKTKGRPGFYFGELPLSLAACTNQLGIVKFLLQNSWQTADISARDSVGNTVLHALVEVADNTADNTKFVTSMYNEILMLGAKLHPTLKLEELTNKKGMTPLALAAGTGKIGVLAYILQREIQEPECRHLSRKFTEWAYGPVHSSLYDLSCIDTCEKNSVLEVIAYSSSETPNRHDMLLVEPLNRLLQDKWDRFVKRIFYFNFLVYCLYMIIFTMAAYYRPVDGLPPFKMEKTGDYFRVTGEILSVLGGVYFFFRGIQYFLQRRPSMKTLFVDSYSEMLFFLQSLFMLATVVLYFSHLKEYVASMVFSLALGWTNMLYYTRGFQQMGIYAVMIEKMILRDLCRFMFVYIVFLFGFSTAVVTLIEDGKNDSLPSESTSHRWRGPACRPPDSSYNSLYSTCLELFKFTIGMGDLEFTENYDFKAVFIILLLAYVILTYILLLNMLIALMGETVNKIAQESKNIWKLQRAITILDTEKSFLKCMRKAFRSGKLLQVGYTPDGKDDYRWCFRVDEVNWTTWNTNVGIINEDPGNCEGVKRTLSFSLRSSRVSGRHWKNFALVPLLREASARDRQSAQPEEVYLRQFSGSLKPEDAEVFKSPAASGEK
Chain of fatty acid amide hydrolase (FAAH) (P97612 whole entry): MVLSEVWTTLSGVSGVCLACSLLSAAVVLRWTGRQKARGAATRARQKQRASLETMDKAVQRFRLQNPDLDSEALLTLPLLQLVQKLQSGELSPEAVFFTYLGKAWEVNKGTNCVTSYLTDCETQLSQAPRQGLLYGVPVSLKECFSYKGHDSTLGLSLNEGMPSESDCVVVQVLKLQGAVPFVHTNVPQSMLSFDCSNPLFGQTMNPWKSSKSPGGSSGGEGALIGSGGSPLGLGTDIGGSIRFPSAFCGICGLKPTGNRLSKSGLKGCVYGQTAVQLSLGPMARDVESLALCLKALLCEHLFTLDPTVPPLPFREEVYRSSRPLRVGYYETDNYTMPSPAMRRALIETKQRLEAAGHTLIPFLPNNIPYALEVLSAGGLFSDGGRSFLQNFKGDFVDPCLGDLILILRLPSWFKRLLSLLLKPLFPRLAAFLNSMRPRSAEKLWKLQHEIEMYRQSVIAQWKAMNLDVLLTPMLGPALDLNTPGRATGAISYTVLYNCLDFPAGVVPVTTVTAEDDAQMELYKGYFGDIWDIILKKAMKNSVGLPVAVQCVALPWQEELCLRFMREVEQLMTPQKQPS

CCCCCC=CCC=CCC=CCC=CCCCC(=O)NCCc1c[nH]c2ccc(O)cc12 [AA-5-HT, N-arachidonoyl-serotonin]
nocifensive response to formalin [1]: selectively block the 2nd, inflammatory phase | anandamide levels in the PAG (anandamide levels): elevated | type of FAAH inhibition [2]: mixed inhibitors | IC50 (TRPV1 channels): 130 nM | nociceptive response to formalin ([3]; 4 μg/rat injected directly into PAG): potently inhibits both phases | anti-hyperalgesic effect in presence of CB1 receptor antagonist AM251 ([3]; intra-PAG, with AM251 (nmol/rat)): counteracted | anti-hyperalgesic effect in presence of TRPV1 antagonist capsazepine ([3]; intra-PAG, with capsazepine 6 nmol/rat): occluded
